These results are taken from ChEMBL document CHEMBL1697781, “Assessment of the health effects of chemicals in humans: II. Construction of an adverse effects database for QSAR modeling” (Curr Drug Discov Technol, 2004).

Holding throughout (conditions): human
Series [1] concerns Hepatotoxicity. The experiment in a line: FDA HLAED, serum glutamic pyruvic transaminase (SGPT) increase.
Series [2] deals with Hepatotoxicity. Briefly: FDA HLAED, alkaline phosphatase increase.
In series [3] the test system is Hepatotoxicity. Briefly: FDA HLAED, gamma-glutamyl transferase (GGT) increase.
Series [4] relates to Hepatotoxicity. The experiment in a line: FDA HLAED, lactate dehydrogenase (LDH) increase.
The subject of series [5] is Hepatotoxicity. Briefly: FDA HLAED, liver enzyme composite activity.
Series [6] concerns Hepatotoxicity. Briefly: FDA HLAED, serum glutamic oxaloacetic transaminase (SGOT) increase.
Throughout, for GGT Increase - Index Value: reference of the scale not given here.
Throughout, for LDH Increase - Index Value: reference of the scale not given here.

In the case of `Cn1cc([S+](C)[O-])c(=O)c2ccc(F)cc21` (configuration not stated) [FLOSEQUINAN], in the series on Hepatotoxicity [1], the “SGPT Increase - Activity Score” value is recorded as “Inactive”, the “SGPT Increase - Index Value” came out at 28.3 and the “SGPT Increase - Number of Reports” value is recorded as less than 4. Also, in the series with Hepatotoxicity [2], the “Alkaline Phosphatase Increase - Activity Score” value is given as “Inactive”, the “Alkaline Phosphatase Increase - Index Value” was determined as 14.1 and the “Alkaline Phosphatase Increase - Number of Reports” value is on record as less than 4. Besides, in the series on Hepatotoxicity [3], the “GGT Increase - Activity Score” value was “Inactive”, the “GGT Increase - Index Value” worked out at 0 and the “GGT Increase - Number of Reports” value is recorded as less than 4. In the series on Hepatotoxicity [4], the “LDH Increase - Activity Score” value is “Active”, the “LDH Increase - Index Value” turned out to be 56.6 and the “LDH Increase - Number of Reports” value is on record as “>= 4”. In the series with Hepatotoxicity [5], the “Composite Activity - Active” value came out at 1, the “Composite Activity - Marginal” value is on record as 0 and the “Composite Activity - Score” value is recorded as “Inactive”. For the same compound, in the series with Hepatotoxicity [6], the “SGOT Increase - Activity Score” value is “Inactive”, the “SGOT Increase - Index Value” is reported as 28.3 and the “SGOT Increase - Number of Reports” value was less than 4.

As to `CC(C)(C)NCC(O)c1ccc(O)c(CO)c1` (configuration not stated) [ALBUTEROL], in the series with Hepatotoxicity [1], the “SGPT Increase - Activity Score” value is “Inactive”, the “SGPT Increase - Index Value” came out at 0 and the “SGPT Increase - Number of Reports” value is less than 4. For the same compound, in the series with Hepatotoxicity [2], the “Alkaline Phosphatase Increase - Activity Score” value is “Inactive”, the “Alkaline Phosphatase Increase - Index Value” worked out at 0 and the “Alkaline Phosphatase Increase - Number of Reports” value is less than 4. Further, in the series with Hepatotoxicity [3], the “GGT Increase - Activity Score” value is reported as “Inactive”, the “GGT Increase - Index Value” was 0 and the “GGT Increase - Number of Reports” value was less than 4. In addition, in the series on Hepatotoxicity [4], the “LDH Increase - Activity Score” value is reported as “Inactive”, the “LDH Increase - Index Value” is 0 and the “LDH Increase - Number of Reports” value is reported as less than 4. Further, in the series on Hepatotoxicity [5] (Liver), the “Composite Activity - Active” value came to 0, the “Composite Activity - Marginal” value is 0 and the “Composite Activity - Score” value was “Inactive”. Besides, in the series on Hepatotoxicity [6], the “SGOT Increase - Activity Score” value is “Inactive”, the “SGOT Increase - Index Value” worked out at 0.1 and the “SGOT Increase - Number of Reports” value is less than 4.

`CCCCCCC(=O)O[C@H]1CC[C@H]2[C@@H]3CCC4=CC(=O)CC[C@]4(C)[C@H]3CC[C@]12C` [TESTOSTERONE ENANTHATE]: in the series with Hepatotoxicity [1], the “SGPT Increase - Activity Score” value is “Inactive”, the “SGPT Increase - Index Value” turned out to be 7.2 and the “SGPT Increase - Number of Reports” value is reported as less than 4. Besides, in the series on Hepatotoxicity [2], the “Alkaline Phosphatase Increase - Activity Score” value was “Inactive”, the “Alkaline Phosphatase Increase - Index Value” came to 0 and the “Alkaline Phosphatase Increase - Number of Reports” value is given as less than 4. Also, in the series on Hepatotoxicity [3], the “GGT Increase - Activity Score” value was “Inactive”, the “GGT Increase - Index Value” was determined as 4.8 and the “GGT Increase - Number of Reports” value is given as less than 4. In the series with Hepatotoxicity [4], the “LDH Increase - Activity Score” value was “Inactive”, the “LDH Increase - Index Value” turned out to be 2.4 and the “LDH Increase - Number of Reports” value is less than 4. In the series with Hepatotoxicity [5], the “Composite Activity - Active” value came to 0, the “Composite Activity - Marginal” value stood at 0 and the “Composite Activity - Score” value is “Inactive”. Further, in the series with Hepatotoxicity [6], the “SGOT Increase - Activity Score” value is “Inactive”, the “SGOT Increase - Index Value” is 4.8 and the “SGOT Increase - Number of Reports” value is less than 4.

Regarding `C=C1/C(=C\C=C2/CCC[C@]3(C)[C@@H]([C@H](C)CCCC(C)(C)O)CC[C@@H]23)C[C@@H](O)C[C@@H]1O` [CALCITRIOL], in the series with Hepatotoxicity [1], the “SGPT Increase - Activity Score” value is “Inactive”, the “SGPT Increase - Index Value” is given as 0 and the “SGPT Increase - Number of Reports” value is less than 4. For the same compound, in the series with Hepatotoxicity [2], the “Alkaline Phosphatase Increase - Activity Score” value is given as “Inactive”, the “Alkaline Phosphatase Increase - Index Value” is recorded as 0 and the “Alkaline Phosphatase Increase - Number of Reports” value is on record as less than 4. Besides, in the series with Hepatotoxicity [3], the “GGT Increase - Activity Score” value is on record as “Inactive”, the “GGT Increase - Index Value” was determined as 0 and the “GGT Increase - Number of Reports” value is on record as less than 4. Further, in the series with Hepatotoxicity [4], the “LDH Increase - Activity Score” value was “Inactive”, the “LDH Increase - Index Value” is 0 and the “LDH Increase - Number of Reports” value was less than 4. In the series on Hepatotoxicity [5], the “Composite Activity - Active” value was determined as 0, the “Composite Activity - Marginal” value came out at 0 and the “Composite Activity - Score” value is listed as “Inactive”. In addition, in the series on Hepatotoxicity [6], the “SGOT Increase - Activity Score” value is “Inactive”, the “SGOT Increase - Index Value” is reported as 0 and the “SGOT Increase - Number of Reports” value is less than 4.

As to `Clc1ccc(C(Cn2ccnc2)OCc2ccsc2Cl)c(Cl)c1` (configuration not stated) [TIOCONAZOLE], in the series on Hepatotoxicity [1], the “SGPT Increase - Activity Score” value is listed as “Inactive”, the “SGPT Increase - Index Value” is 0 and the “SGPT Increase - Number of Reports” value is less than 4. In the series with Hepatotoxicity [2], the “Alkaline Phosphatase Increase - Activity Score” value is recorded as “Inactive”, the “Alkaline Phosphatase Increase - Index Value” is listed as 0 and the “Alkaline Phosphatase Increase - Number of Reports” value was less than 4. In the series on Hepatotoxicity [3], the “GGT Increase - Activity Score” value is on record as “Inactive”, the “GGT Increase - Index Value” is given as 0 and the “GGT Increase - Number of Reports” value is listed as less than 4. In the series with Hepatotoxicity [4], the “LDH Increase - Activity Score” value is on record as “Inactive”, the “LDH Increase - Index Value” was determined as 0 and the “LDH Increase - Number of Reports” value was less than 4. Besides, in the series on Hepatotoxicity [5] (Liver), the “Composite Activity - Active” value was 0, the “Composite Activity - Marginal” value turned out to be 0 and the “Composite Activity - Score” value is recorded as “Inactive”. For the same compound, in the series on Hepatotoxicity [6], the “SGOT Increase - Activity Score” value is “Inactive”, the “SGOT Increase - Index Value” is 0 and the “SGOT Increase - Number of Reports” value is less than 4.

`N#Cc1cc(NC(=O)C(=O)O)c(Cl)c(NC(=O)C(=O)O)c1` [LODOXAMIDE]: in the series on Hepatotoxicity [1], the “SGPT Increase - Activity Score” value was “Inactive”, the “SGPT Increase - Index Value” came out at 0 and the “SGPT Increase - Number of Reports” value was less than 4. For the same compound, in the series on Hepatotoxicity [2], the “Alkaline Phosphatase Increase - Activity Score” value is “Inactive”, the “Alkaline Phosphatase Increase - Index Value” stood at 0 and the “Alkaline Phosphatase Increase - Number of Reports” value was less than 4. Further, in the series on Hepatotoxicity [3], the “GGT Increase - Activity Score” value is listed as “Inactive”, the “GGT Increase - Index Value” is given as 0 and the “GGT Increase - Number of Reports” value is reported as less than 4. In addition, in the series on Hepatotoxicity [4], the “LDH Increase - Activity Score” value is “Inactive”, the “LDH Increase - Index Value” is on record as 0 and the “LDH Increase - Number of Reports” value was less than 4. Further, in the series with Hepatotoxicity [5], the “Composite Activity - Active” value was 0, the “Composite Activity - Marginal” value came out at 0 and the “Composite Activity - Score” value is reported as “Inactive”. Moreover, in the series with Hepatotoxicity [6], the “SGOT Increase - Activity Score” value is given as “Inactive”, the “SGOT Increase - Index Value” was 0 and the “SGOT Increase - Number of Reports” value is less than 4.

As for `C=CC1=C(C(=O)O)N2C(=O)[C@@H](NC(=O)/C(=N\OCC(=O)O)c3csc(N)n3)[C@H]2SC1` [CEFIXIME], in the series with Hepatotoxicity [1], the “SGPT Increase - Activity Score” value was “Inactive”, the “SGPT Increase - Index Value” came to 0.4 and the “SGPT Increase - Number of Reports” value is given as “>= 4”. For the same compound, in the series on Hepatotoxicity [2], the “Alkaline Phosphatase Increase - Activity Score” value is reported as “Inactive”, the “Alkaline Phosphatase Increase - Index Value” came to 13.7 and the “Alkaline Phosphatase Increase - Number of Reports” value is given as less than 4. Besides, in the series with Hepatotoxicity [3], the “GGT Increase - Activity Score” value is “Inactive”, the “GGT Increase - Index Value” turned out to be 0 and the “GGT Increase - Number of Reports” value was less than 4. In the series on Hepatotoxicity [4], the “LDH Increase - Activity Score” value is “Inactive”, the “LDH Increase - Index Value” is 0.1 and the “LDH Increase - Number of Reports” value is recorded as less than 4. Besides, in the series on Hepatotoxicity [5], the “Composite Activity - Active” value is reported as 0, the “Composite Activity - Marginal” value turned out to be 0 and the “Composite Activity - Score” value was “Inactive”. For the same compound, in the series on Hepatotoxicity [6], the “SGOT Increase - Activity Score” value is recorded as “Inactive”, the “SGOT Increase - Index Value” worked out at 0.4 and the “SGOT Increase - Number of Reports” value was “>= 4”.

For `Cc1cccc(Nc2ccncc2S(=O)(=O)NC(=O)NC(C)C)c1` [TORSEMIDE], in the series on Hepatotoxicity [1], the “SGPT Increase - Activity Score” value is “Inactive”, the “SGPT Increase - Index Value” stood at 0.5 and the “SGPT Increase - Number of Reports” value is reported as less than 4. Also, in the series on Hepatotoxicity [2], the “Alkaline Phosphatase Increase - Activity Score” value was “Inactive”, the “Alkaline Phosphatase Increase - Index Value” came to 0 and the “Alkaline Phosphatase Increase - Number of Reports” value is listed as less than 4. Besides, in the series with Hepatotoxicity [3], the “GGT Increase - Activity Score” value is on record as “Inactive”, the “GGT Increase - Index Value” came to 0 and the “GGT Increase - Number of Reports” value is less than 4. Besides, in the series on Hepatotoxicity [4], the “LDH Increase - Activity Score” value was “Inactive”, the “LDH Increase - Index Value” is on record as 0 and the “LDH Increase - Number of Reports” value is reported as less than 4. Also, in the series on Hepatotoxicity [5], the “Composite Activity - Active” value stood at 0, the “Composite Activity - Marginal” value was determined as 0 and the “Composite Activity - Score” value is “Inactive”. In the series with Hepatotoxicity [6], the “SGOT Increase - Activity Score” value is given as “Inactive”, the “SGOT Increase - Index Value” is recorded as 0.5 and the “SGOT Increase - Number of Reports” value is on record as less than 4.

On to `Clc1ccc(CCC(Cn2ccnc2)Sc2c(Cl)cccc2Cl)cc1` (configuration not stated) [BUTOCONAZOLE], for which, in the series with Hepatotoxicity [1], the “SGPT Increase - Activity Score” value is reported as “Inactive”, the “SGPT Increase - Index Value” worked out at 0.2 and the “SGPT Increase - Number of Reports” value was less than 4. Besides, in the series on Hepatotoxicity [2], the “Alkaline Phosphatase Increase - Activity Score” value is recorded as “Inactive”, the “Alkaline Phosphatase Increase - Index Value” worked out at 0.2 and the “Alkaline Phosphatase Increase - Number of Reports” value is on record as less than 4. Also, in the series on Hepatotoxicity [3], the “GGT Increase - Activity Score” value was “Inactive”, the “GGT Increase - Index Value” is given as 0 and the “GGT Increase - Number of Reports” value is reported as less than 4. In the series with Hepatotoxicity [4], the “LDH Increase - Activity Score” value is reported as “Inactive”, the “LDH Increase - Index Value” was found to be 0 and the “LDH Increase - Number of Reports” value is recorded as less than 4. In the series with Hepatotoxicity [5], the “Composite Activity - Active” value is on record as 0, the “Composite Activity - Marginal” value is 0 and the “Composite Activity - Score” value is “Inactive”. In the series with Hepatotoxicity [6], the “SGOT Increase - Activity Score” value was “Inactive”, the “SGOT Increase - Index Value” is reported as 0 and the “SGOT Increase - Number of Reports” value is less than 4.
